Here are results for seven molecules from patent US11274295B2, “Methods for generating pools of variants of a DNA template” (priority 2012, dated 2022).

Broadly, the MIC is the lowest concentration found to suppress growth.

Holding throughout (format): cell-based
Assay [1] concerns E. coli expressing WT APH(3′)II. The assay is described as follows: MIC of aminoglycosides in E. coli expressing WT APH(3′)II, immediately following transformation. The settings on record: Stellar cells transformed with WT pBR322-EM7-neo, LB with carbenicillin 50 μg/mL, 24 hrs, MIC = lowest dilution with A600 < 0.025; for MIC: Escherichia coli, read-out: estimated 1:1 WT MIC. The protocol: (§1) To determine the minimum inhibitory concentration (MIC) of each of the six aminoglycosides: kanamycin, ribostamycin, G418, amikacin, neomycin, paromomycin (Sigma-Aldrich, St. Louis, Mo.) in E. coli expressing WT APH(3′)II, Stellar cells were transformed with pBR322-EM7-neo, recovered in SOC medium (New England Biolabs (NEB), Ipswich, Mass.) at 37° C. for 1 hr, diluted 1:100 with LB and then divided into 96-well growth blocks containing LB with carbenicillin (50 μg/mL) and 2-fold serial dilutions of aminoglycosides. After growth at 37° C. with shaking for 24 hrs, the culture densities were assessed by absorbance at 600 nm (A600) using a NanoDrop 8000 (Thermo Scientific, Billerica, Mass.).
(§2) The cultures were incubated in 50 mL tubes at 37° C. with shaking for 24 hours, pelleted by centrifugation and frozen at −20° C. Plasmids were isolated from the pellets using QIAprep Spin Miniprep kits (Qiagen). Each transformation and selection was performed in duplicate, using each of the two independently generated mutant libraries.

The subject of assay [2] is E. coli transformed with APH(3′)II substitution libraries. Briefly: Mutational scanning selection of APH(3′)II substitution libraries in E. coli.
Excerpt: To perform mutational scanning in vivo, we cultured E. coli transformed with APH(3′)II substitution libraries in liquid media supplemented with decreasing concentrations of one of six aminoglycoside antibiotics with diverse structures and a wide range of potencies: kanamycin, ribostamycin, G418, amikacin, neomycin or paromomycin (FIG. 3). To normalize the selective pressures induced by the different antibiotics, we first established their minimum inhibitory concentrations (MICs) for E. coli transformed with “wild-type” (WT) APH(3′)II and then used 1:1, 1:2, 1:4 and 1:8 dilutions of WT MICs for the respective library selections. We note that, with the exception of G418 and amikacin, even the 1:8 dilutions were sufficient to inhibit growth of untransformed E. coli. After overnight selection, plasmids were isolated from the surviving cells and their coding regions were shotgun sequenced to compare the amino acid composition of the selected libraries to that of the original input libraries (median coverage=51,400×).
as §2

A further assay concerns untransformed e. coli. The assay is described as follows: Growth inhibition of untransformed E. coli by aminoglycoside. The settings on record: Table 2 experiment.
Assay [3] relates to E. coli transformed with APH(3′)II variants (pBR322[EM7-K1] through pBR322[EM7-K44]). The assay is described as follows: MIC of aminoglycosides in E. coli carrying synthetic APH(3′)II variants, 2-fold dilution series, A600. The settings on record: E. coli expressing the APH(3′)II variant, 2-3 independent cultures. As to the method: as §1
To establish the substrate specificity of the synthetic APH(3′)II variants relative to WT APH(3′)II, glycerol stocks of the relevant clones (pBR322[EM7-K1] through pBR322[EM7-K44]) were streaked onto LB agar plates and cultured overnight at 37° C. Single colonies were then inoculated into 1 mL LB with 50 μg carbenicillin, incubated at 37° C. with shaking for 6 hours, diluted 1:100 into LB media, and then split into 96-well deep well plates containing LB with carbenicillin (50 μg/mL) and 2-fold serial dilutions of aminoglycosides dilution series. We note that the longer recovery in these follow-up experiments increased the absolute MICs compared to those we measured immediately following transformation).

For `CN[C@@H]1[C@@H](O)[C@@H](O[C@@H]2[C@@H](O)[C@H](O[C@H]3O[C@H]([C@@H](C)O)[C@@H](O)[C@H](O)[C@H]3N)[C@@H](N)C[C@H]2N)OC[C@]1(C)O` [G418], in assay [1], the “estimated 1:1 WT MIC” value was 5 µg/mL. Also, the selection pressure result in assay [2] (at its 1:8 WT MIC) is “did not provide an effective selection pressure”.
`NCC[C@H](O)C(=O)N[C@@H]1C[C@H](N)[C@@H](O[C@H]2O[C@H](CN)[C@@H](O)[C@H](O)[C@H]2O)[C@H](O)[C@H]1O[C@H]1O[C@H](CO)[C@@H](O)[C@H](N)[C@H]1O` [amikacin]: the minimal inhibitory concentration (MIC) in assay [1] was 10 µg/mL. For the same molecule, in the assay with untransformed e. coli, the “lowest concentration that reliably inhibited growth of untransformed e. coli” value is “(*) 12.5 ug/mL was the lowest amikacin concentration that reliably inhibited growth of untransformed e. coli in this experiment. These estimated MICs therefore reflect total or near total loss of activity on both susbtrates”. Also, the selection pressure result in assay [2] (at its 1:4 and 1:8 WT MICs) is reported as “did not provide an effective selection pressure”.
For `NC[C@H]1O[C@H](O[C@H]2[C@H](O)[C@@H](O[C@H]3O[C@H](CO)[C@@H](O)[C@H](N)[C@H]3O)[C@H](N)C[C@@H]2N)[C@H](O)[C@@H](O)[C@@H]1O` [kanamycin], in assay [1], the MIC is 225 µg/mL.
`NC[C@@H]1O[C@H](O[C@H]2[C@@H](O)[C@H](O[C@@H]3[C@@H](O)[C@H](N)C[C@H](N)[C@H]3O[C@H]3O[C@H](CO)[C@@H](O)[C@H](O)[C@H]3N)O[C@@H]2CO)[C@H](N)[C@@H](O)[C@@H]1O` [paromomycin]: the MIC in assay [1] is 320 µg/mL.
On the same count and under the same terms, the figure for `NC[C@H]1O[C@H](O[C@H]2[C@H](O[C@@H]3O[C@H](CO)[C@@H](O)[C@H]3O)[C@@H](O)[C@H](N)C[C@@H]2N)[C@H](N)[C@@H](O)[C@@H]1O` [ribostamycin] is 2500 µg/mL.
Take neomycin: in assay [1], the “estimated 1:1 WT MIC” value is 40 µg/mL.

B1: KKA2_KLEPN_opt_K1: Wild-type aminoglycoside-3′-phosphotransferase-II (APH(3′)II) (protein, UniProt P00552 1-264, looked up)
Aminoglycoside …: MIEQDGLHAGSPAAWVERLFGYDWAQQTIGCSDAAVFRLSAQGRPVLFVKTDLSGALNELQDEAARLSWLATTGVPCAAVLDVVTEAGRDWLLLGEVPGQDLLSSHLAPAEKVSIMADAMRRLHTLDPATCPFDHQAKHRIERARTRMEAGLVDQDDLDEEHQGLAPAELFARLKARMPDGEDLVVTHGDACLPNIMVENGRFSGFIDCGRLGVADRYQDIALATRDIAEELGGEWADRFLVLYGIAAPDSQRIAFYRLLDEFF
modifications: codon-optimized
For B1, in assay [3], the “MIC of G418” value turned out to be 50.00 µg/mL, the MIC of amikacin is 25.00 µg/mL, the MIC of kanamycin came to 2000.00 µg/mL and the MIC of neomycin was determined as 400.00 µg/mL. In addition, in assay [3], the MIC of paromomycin is 4000.00 µg/mL and the MIC of ribostamycin came out at 15000.00 µg/mL.
